The test system of test [1] is Osteoblast-like rat osteosarcoma cells (ROS17/2.8). In words: Determination of osteocalcin synthesis (radio-immunoassay of OC released into the medium). As to conditions: for order of potency relative to 1,25(OH)2D3 (induction of OC synthesis): 1,25(OH)2D3 = 1.0; for effectiveness on OC synthesis compared with the steroid hormone 1,25(OH)2D3 / stimulation of OC synthesis: 72 hours incubation. In kind it is cell-based. As to the method: Cells were grown by 72 hours in the absence (control) or presence of the indicated concentrations of 1α, 25-dihydroxy-vitamin D3[1,25(OH)2D3], EHDP, APD, OPD or NH2-OPD. Then osteocalcin (OC) released into the medium was quantitated as described in Example 4. Data are the average±SD of 3 independent experiments performed by triplicate.
(§1) Osteoblast-like rat osteosarcoma cells (ROS17/2.8) were cultured as monolayers at 37° C. in Dulbecco's modified Eagle's medium (DME) containing 10% fetal bovine serum under humidified air (5.5% CO2). After 48 hours, medium was changed to DME containing 1% fetal bovine serum. Unless otherwise stated, cells were allowed to grow until confluence (4-5 days after plating).
Osteoblasts grown by 48 hours in multiwells were changed to Dulbecco's modified Eagle's medium containing 1% fetal bovine serum plus the indicated concentration of BP, 10^−8 M 1,25(OH)2D3 (positive control), or vehicle alone, and then allowed to grow for an additional period of 72 hours. The medium from each well was collected and stored frozen at −80° C. until use for osteocalcin measurements. Osteocalcin (OC) was quantitatively measured by radio-immunoassay using a commercially avalaible kit (Osteocalcin DSL-6900, Diagnostic Systems Laboratories Inc., Webster, Tex., USA) according to manufacturer's instructions. Osteocalcin values were corrected for total cellular protein content.

Test [2] has the same test system. The test is described as follows: Intracellular calcium measurements (Fura-2 fluorimetry), with or without VDCC blockers, PLC inhibitors or thapsigargin. As to conditions: for Ca^2+ response after depletion of Ca^2+ stores with thapsigargin: 1 μM thapsigargin, bisphosphonate 10 nM; for % Inhibition (decrease in Δ[Ca^2+]i) / [Ca^2+]i / Δ[Ca^2+]i: 10^−8 M; for rapid (1 min) increase in cytosolic Ca^2+ after pretreatment with PLC inhibitors: U73122 (2 μM) or neomycin (0.5 mM); for rapid (1 min) increase in cytosolic Ca^2+ after pretreatment with U73343: U73343, analogue of U73122 devoid of effect on PLC, not shown; for reduction of the induced [Ca^2+]i increase by VDCC blockers: pretreatment with nifedipine (2 μM) or verapamil (5 μM). The arrangement: Δ[Ca^2+]i: unit not given here. In kind it is cell-based. As to the method:
as §1
Intracellular Ca^2+ changes were monitored by using the Ca^2+-sensitive fluorescent dye Fura-2 as previously described (Vasquez et al., 1998, J. Biol. Chem. 273, 33954-33960). Cell dye loading was achieved by incubating the cells in buffer A containing (in mM): 138 NaCl, 5 KCl, 1 MgCl2, 5 glucose, 10 HEPES (pH 7.4), 1.5 CaCl2, plus 0.1% bovine serumalbumin (BSA), 2 μM of the pentaacetoxymethylester derivative (membrane permeable) Fura-2/AM and 0.012% pluronic F-127, in the dark during 40 min at room temperature (20-25° C.) in order to minimize dye compartmentalization. Unloaded dye was washed out and cells were stored in buffer B (buffer A without BSA, Fura-2/AM and pluronic F-127) in the dark (room temperature) by at least 30 min prior to use, to allow for complete intracellular dye deesterification. For fluorescence measurements the coverslips containing dye-loaded cells were mounted into quartz cuvettes and introduced into the thermostatized (37° C.) sample compartment of a SLM Aminco 8100 spectrofluorimeter. Fura-2 intracellular fluorescence intensity was monitored at an emission wavelength of 510 nm (8 nm bandpass) by alternating with an electronically controlled chopper (300 Hz) the excitation wavelength between 340 and 390 nm employing a dual excitation monochromator at 4 nm bandpass. Signals from short and long wavelength were ratioed (R=340/390) thus making the measurement independent of variations in cellular dye content, dye leakage or photobleaching. Calibration of Fura-2 signal to calculate [Ca^2+]i values was performed for each coverslip as follows: maximal (Rmax) and minimal (Rmin) intracellular dye fluorescence signals were determined by adding 5 μM ionomycin plus 3 mM Ca^2+ and 10 mM EGTA (pH 7.0) plus 10 mM Tris-base (pH 9.0), respectively.
[Ca^2+]i=Kd(R−Rmin)/(Rmax−R)×β
where R is the ratio of Fura-2 fluorescence at the selected wavelengths, Rmax and Rmin represent ratios from Ca^2+ saturated and Ca^2+ free intracellular dye, respectively, and β is the ratio between the specific fluorescence of the Ca^2+ free and Ca^2+ bound forms of the dye at the longer wavelength (Sf2/Sb2).
Fura-2 loaded osteoblasts were treated with vehicle (buffered saline solution, Basal), OPD (10−8 M) or NH2-OPD (10^−8 M) and intracellular Ca^2+ concentration ([Ca^2+]i) was measured as described. Given are [Ca^2+]i values corresponding to the plateau phase (5 min after BP exposure; see FIG. 3) of the BP-induced Ca^2+ response. When used, both nifedipine (2 μM) and verapamil (5 μM) were added 3 min before stimulation. Data are the average of 5 independent [Ca^2−]i recordings±sd. p values (*p<0.001; **p<0.01) are given for significant differences respect to basal. Percent (%) inhibition refers to the decrease in Δ[Ca^2+]i.
Fura-2 loaded cells were treated with vehicle (buffered saline solution, Basal), OPD (10^−8 M) or NH2-OPD (10^−8 M) and intracellular Ca^2+ concentration ([Ca^2+]i) was measured as described. Unless otherwise indicated, [Ca^2+]i stimulation was evaluated at the plateau phase of the BP-induced response (see FIG. 3). When used, the PLC inhibitors U73122 (2 μM) or neomycin (0.5 mM, data in parentheses) were added into the measurement cuvette 3 min before stimulation. In the PLC-inhibition assay [Ca^2+]i values measured at 1- and 5-min. after stimulation are given. Results are expressed as percent of control (100%) to allow comparison among different assay conditions, and are the average of 3 independent experiments±sd. *p<0.001; **p<0.01. Percent (%) inhibition refers to the decrease in Δ[Ca^2+]i.
On the technique in general: A change in cytosolic calcium serves as a functional read-out for many receptors and channels.

For a further test, the system named is bone resorption. As to conditions: Van Beek E. et al., 1996, J. Bone Miner. Res. 11, 1492-1497; cited from earlier work.
Where [3] appears, read: U73122 (2 μM), 1 min after stimulation.
Where [4] appears, read: U73122 (2 μM), 5 min after stimulation.
Where [5] appears, read: neomycin (0.5 mM, data in parentheses), 1 min.
Where [6] appears, read: neomycin (0.5 mM, data in parentheses), 1 min after stimulation.
[7] abbreviates: neomycin (0.5 mM, data in parentheses), 5 min.
Where [8] appears, read: neomycin (0.5 mM, data in parentheses), 5 min after stimulation.
Setting [9] is: plateau phase (5 min), nifedipine (2 μM) pretreatment.
Where [10] appears, read: plateau phase (5 min), nifedipine (2 μM) pretreatment 3 min before.
Where [11] appears, read: plateau phase (5 min), no pretreatment, basal 135 ± 6.
The mark [12] stands for this setting: plateau phase (5 min), no pretreatment, difference to basal.
The mark [13] stands for this setting: plateau phase (5 min), verapamil (5 μM) pretreatment.
The mark [14] stands for this setting: plateau phase (5 min), verapamil (5 μM) pretreatment 3 min before.
[15] abbreviates: plateau phase, no PLC inhibitor.
Where [16] appears, read: plateau phase, no PLC inhibitor, difference to control (100%).

Structures are written as SMILES. Entries after “also recorded” stand apart in the source; their conditions may differ. Marks after values point to notes of the source that are not given here.

On to `C=C1/C(=C\C=C2/CCC[C@]3(C)[C@@H]([C@H](C)CCCC(C)(C)O)CC[C@@H]23)C[C@@H](O)C[C@@H]1O` [1,25(OH)2D3, 1α, 25-dihydroxy-vitamin D3], for which, in test [1] (10^−8 M, 72 hours), the “release of OC into the culture medium increased respect to control, untreated cells” value worked out at 100% and the “order of potency relative to 1,25(OH)2D3 (induction of OC synthesis)” value (shortened to “order of potency relative to 1,25(OH)2D3”) is listed as 1.0. The “time-to-peak of cytosolic Ca^2+ change” value in test [2] (10 nM) was 90 s.

As to `NCCC(O)(P(=O)(O)O)P(=O)(O)O` [APD, pamidronate], the “order of potency relative to 1,25(OH)2D3” value in test [1] (10^−8 M, 72 hours) was determined as 1.1. In addition, the “effectiveness on OC synthesis compared with the steroid hormone 1,25(OH)2D3” value in test [1] is “more effective than the steroid hormone”. Besides, in test [2] (10 nM), the “maximal change in cytosolic Ca^2+ relative to 1,25(OH)2D3” value is on record as “less effective than the steroid” and the “time-to-peak of cytosolic Ca^2+ change” value was found to be 80 s.

With `CC(O)(P(=O)(O)O)P(=O)(O)O` [EHDP, etidronate], the “order of potency relative to 1,25(OH)2D3” value in test [1] (10^−8 M, 72 hours) turned out to be 0.85. Moreover, in test [2] (10 nM), the “maximal change in cytosolic Ca^2+ relative to 1,25(OH)2D3” value is on record as “less effective than the steroid”; the “rate of Ca^2+ elevation, initial phase (0-2 min)” value was “slowest rate of Ca^2+ elevation”; the “time-to-peak of cytosolic Ca^2+ change” value was 120 s.

Take `CN(C)CCC(N)(P(=O)(O)O)P(=O)(O)O` [NH2-OPD, 1-amino-3-(N,N-dimethylamino)-propylidene-1,1-bisphosphonic acid]: in test [1] (10^−8 M, 72 hours), the “order of potency relative to 1,25(OH)2D3” value was found to be 0.85. For the same molecule, the “effectiveness on OC synthesis compared with the steroid hormone 1,25(OH)2D3” value in test [1] is “lower than for the secosteroid”. Also, the “stimulation of OC synthesis” value in test [1] was “markedly stimulated OC synthesis in a dose-dependent fashion”. The “maximal change in cytosolic Ca^2+ relative to 1,25(OH)2D3” value in test [2] (10 nM) is reported as “less effective than the steroid”. In test [2] (10 nM), the “time-to-peak of cytosolic Ca^2+ change” value came out at 80 s. For the same molecule, the “Ca^2+ response after depletion of Ca^2+ stores with thapsigargin” value in test [2] is recorded as “completely blocked”. Also, the “% Inhibition (decrease in Δ[Ca^2+]i)” value in test [2] (U73122 (2 μM), 1 min) is given as 100%; in test [2] (U73122 (2 μM), 5 min) it was 100(100) %; in test [2] (setting [5]) it was 99%; in test [2] (setting [7]), 100(100) %; in test [2] (setting [9]), 90%; in test [2] (setting [13]), 100%. Further, the “[Ca^2+]i” value in test [2] (setting [3]) is 101 ± 5% of control (100%); in test [2] (setting [4]), 100 ± 11% of control (100%); in test [2] (setting [6]), 99 ± 1% of control (100%); in test [2] (setting [8]) it was 100 ± 5% of control (100%); in test [2] (setting [10]), 137 ± 6 nM; in test [2] (setting [11]), 150 ± 3** nM. For the same molecule, the “[Ca^2+]i” value in test [2] (setting [14]) is 133 ± 7 nM; in test [2] (setting [15]), 137 ± 3** percent of control (100%). Besides, the figures for the “Δ[Ca^2+]i” value in test [2] (setting [9]), in test [2] (setting [12]) and in test [2] (setting [16]) were 2, 15 and 37, respectively. The “rapid increase in [Ca^2+]i (time of onset)” value in test [2] (Fura-2 loaded cells) worked out at 60 s. Moreover, the “rapid (1 min) increase in cytosolic Ca^2+ after pretreatment with PLC inhibitors” value in test [2] was “totally blocked”. Besides, in test [2], the “rapid (1 min) increase in cytosolic Ca^2+ after pretreatment with U73343” value was “not by U73343”. Further, in test [2], the “reduction of the induced [Ca^2+]i increase by VDCC blockers” value was “almost completely abolished”. In test [2] (transient Ca^2+ rise, down-turn phase after peak), the “return of [Ca^2+]i to near basal levels after peak” value lay in the range of 1 to 2 min. In the test with bone resorption, the antiresorptive activity result was “complete loss of antiresorptive activity; also recorded: absolutely devoid of antiresorptive properties”.

As for `CN(C)CCC(O)(P(=O)(O)O)P(=O)(O)O` [OPD, olpadronate], the “order of potency relative to 1,25(OH)2D3” value in test [1] (10^−8 M, 72 hours) is 1.9. In addition, the “effectiveness on OC synthesis compared with the steroid hormone 1,25(OH)2D3” value in test [1] is listed as “more effective than the steroid hormone”. Moreover, the “stimulation of OC synthesis” value in test [1] is reported as “markedly stimulated OC synthesis in a dose-dependent fashion”. In addition, in test [2] (10 nM), the “maximal change in cytosolic Ca^2+ relative to 1,25(OH)2D3” value is given as “equipotent to the steroid”. Further, in test [2] (10 nM), the “time-to-peak of cytosolic Ca^2+ change” value was 60 s. The “Ca^2+ response after depletion of Ca^2+ stores with thapsigargin” value in test [2] is “completely blocked”. In addition, the “% Inhibition (decrease in Δ[Ca^2+]i)” value in test [2] (U73122 (2 μM), 1 min) was 100(100) %; in test [2] (U73122 (2 μM), 5 min), 100(100) %; in test [2] (setting [5]) it was 100(100) %; in test [2] (setting [7]) it was 100(100) %; in test [2] (setting [9]), 70%; in test [2] (setting [13]), 85%. The “[Ca^2+]i” value in test [2] (setting [3]) was 105 ± 3% of control (100%); in test [2] (setting [4]), 100 ± 5% of control (100%); in test [2] (setting [6]), 98 ± 2% of control (100%); in test [2] (setting [8]), 100 ± 8% of control (100%); in test [2] (setting [10]), 156 ± 8** nM; in test [2] (setting [11]), 205 ± 10* nM. Besides, the “[Ca^2+]i” value in test [2] (setting [14]) is on record as 146 ± 5 nM; in test [2] (setting [15]) it was 164 ± 9* percent of control (100%). For the same molecule, the “Δ[Ca^2+]i” value in test [2] (setting [9]) is listed as 21; in test [2] (setting [12]), 70; in test [2] (setting [13]), 11; in test [2] (setting [16]), 64. Also, in test [2], the “rapid (1 min) increase in cytosolic Ca^2+ after pretreatment with PLC inhibitors” value is reported as “totally blocked”. Besides, in test [2], the “rapid (1 min) increase in cytosolic Ca^2+ after pretreatment with U73343” value was “not by U73343”. Further, the “reduction of the induced [Ca^2+]i increase by VDCC blockers” value in test [2] stood at 70%.
